Experimental data reported in PMC9519552, “Activation of the human insulin receptor by non-insulin-related peptides” (Nature Communications, 2022).
Read-outs that look alike come from different tables or passages of the source. Positions of bridges follow the written chain, without caps; N, C: chain ends. Residues, ends and D or L forms follow the SMILES beside them.

Key:
[1] = molecular target: T1, human holoIR-A over-expressed in HEK293 cells (Homo sapiens, UniProt P06213); assay: Inhibition of hIR phosphorylation by peptides, co-incubated with BHI at its EC50 (ELISA); format: cell-based; settings: for hIRA Phosph IC50 Run 1 / hIRA Phosph IC50 Run 2 / hIRA Phosph IC50 Run 3: inhibition of insulin-stimulated phosphorylation; for hIRA Phosph IC50 Run 1: BHI at its EC50, run 1; for hIRA Phosph IC50 Run 2: BHI at its EC50, run 2; for hIRA Phosph IC50 Run 3: BHI at its EC50, run 3; for IC50: read-out: hIRA Phosph IC50 Mean
T1 construct: expressed in transfected cells; host or cells: HEK293, stably transfected
T1 sequence (P06213 28-1370 isoform P06213-2 limits assumed): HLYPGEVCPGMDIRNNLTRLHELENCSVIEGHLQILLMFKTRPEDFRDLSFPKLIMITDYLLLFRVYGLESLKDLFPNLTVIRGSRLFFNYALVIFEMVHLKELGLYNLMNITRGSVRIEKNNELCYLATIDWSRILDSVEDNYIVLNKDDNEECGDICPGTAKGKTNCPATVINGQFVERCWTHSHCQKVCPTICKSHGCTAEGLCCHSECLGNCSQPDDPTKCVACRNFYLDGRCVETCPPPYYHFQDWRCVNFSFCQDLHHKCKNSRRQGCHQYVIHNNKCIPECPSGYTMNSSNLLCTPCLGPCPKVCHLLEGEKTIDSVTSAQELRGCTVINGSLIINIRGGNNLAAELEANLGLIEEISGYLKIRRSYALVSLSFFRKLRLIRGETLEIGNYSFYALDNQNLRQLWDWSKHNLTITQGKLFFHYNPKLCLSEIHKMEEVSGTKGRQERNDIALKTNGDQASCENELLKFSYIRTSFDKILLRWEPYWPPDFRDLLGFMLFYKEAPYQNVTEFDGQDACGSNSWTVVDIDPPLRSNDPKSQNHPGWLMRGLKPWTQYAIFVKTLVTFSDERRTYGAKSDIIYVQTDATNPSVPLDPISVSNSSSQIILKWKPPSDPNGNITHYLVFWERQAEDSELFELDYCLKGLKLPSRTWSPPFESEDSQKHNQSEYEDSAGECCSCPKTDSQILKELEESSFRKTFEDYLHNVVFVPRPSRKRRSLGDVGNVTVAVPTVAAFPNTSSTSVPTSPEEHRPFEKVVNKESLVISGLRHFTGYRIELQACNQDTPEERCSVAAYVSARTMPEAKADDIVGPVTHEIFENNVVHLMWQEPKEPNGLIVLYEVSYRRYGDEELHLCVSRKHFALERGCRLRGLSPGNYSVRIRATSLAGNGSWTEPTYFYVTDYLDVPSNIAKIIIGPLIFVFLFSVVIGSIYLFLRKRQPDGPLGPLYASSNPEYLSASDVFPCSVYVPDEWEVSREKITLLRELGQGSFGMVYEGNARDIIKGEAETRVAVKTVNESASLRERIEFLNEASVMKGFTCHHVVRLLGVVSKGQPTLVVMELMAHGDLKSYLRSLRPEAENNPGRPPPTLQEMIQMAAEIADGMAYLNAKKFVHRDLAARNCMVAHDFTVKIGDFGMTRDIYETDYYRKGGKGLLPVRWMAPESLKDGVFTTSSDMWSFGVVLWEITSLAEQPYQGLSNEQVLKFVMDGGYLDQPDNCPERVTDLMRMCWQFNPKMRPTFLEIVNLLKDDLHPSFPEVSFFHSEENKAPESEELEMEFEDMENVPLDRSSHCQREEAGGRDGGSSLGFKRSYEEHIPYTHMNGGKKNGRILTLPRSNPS
T1 sequence (P06213 763-1382 partner limits assumed): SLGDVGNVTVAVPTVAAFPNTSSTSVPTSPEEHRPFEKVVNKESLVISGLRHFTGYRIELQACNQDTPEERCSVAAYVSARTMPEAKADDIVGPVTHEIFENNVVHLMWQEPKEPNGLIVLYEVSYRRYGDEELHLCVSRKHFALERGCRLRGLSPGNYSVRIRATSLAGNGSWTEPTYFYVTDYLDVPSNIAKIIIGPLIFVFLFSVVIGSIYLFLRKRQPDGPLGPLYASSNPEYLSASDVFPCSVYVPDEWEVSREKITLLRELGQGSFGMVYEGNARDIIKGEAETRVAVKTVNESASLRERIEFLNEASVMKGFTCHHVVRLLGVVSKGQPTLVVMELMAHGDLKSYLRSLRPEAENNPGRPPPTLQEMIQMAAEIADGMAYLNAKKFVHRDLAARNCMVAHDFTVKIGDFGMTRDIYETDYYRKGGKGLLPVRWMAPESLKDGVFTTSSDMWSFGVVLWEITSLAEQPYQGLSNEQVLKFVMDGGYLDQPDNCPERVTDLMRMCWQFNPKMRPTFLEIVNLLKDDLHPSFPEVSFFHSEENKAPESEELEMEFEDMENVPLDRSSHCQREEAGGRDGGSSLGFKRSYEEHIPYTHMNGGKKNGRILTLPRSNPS
Procedure: Phosphorylation was quantified using an ELISA technique. Ninety-six well, flat-bottom microplates (Greiner Bio-One) were pre-coated with 2 µg mL^−1 anti-C9 monoclonal antibody (Rho 1D4; University of British Columbia)[27] in 20 mM sodium carbonate, pH 9.6, at 4 °C for overnight prior to the assay. On the assay day, plates were washed 3× with 0.1% Tween in 50 mM Tris Buffer Saline, pH 7.5 (TBST), and then blocked for greater than 1 h at room temperature (RT) with 1% BSA (Sigma) in TBST.
Stably transfected HEK293 cells over-expressing human holoIR-A containing a C-terminal C9 epitope tag ([…]), were plated at 6 × 10^4 cells per well serum-starved using 0.1% BSA in DMEM (Gibco) for overnight at standard tissue culture condition. […] After a 15-min incubation in lysis buffer at 4 °C, the lysate was transferred to anti-C9 antibody coated capture plate (Rho 1D4; University of British Columbia)[27]. […] After a 1 h incubation at room temperature, the secondary antibody was removed by washing 3× with TBST. Signal detection occurred with the addition of TMB, an HRP substrate (Pierce). After 5–10 min, the reaction was stopped by adding an equal volume of 2 M H2SO4, and the absorbance readings at 450 nm (A450) were recorded using a Envision plate reader (PerkinElmer). Samples were tested in three independent assay runs on three different days.
Percent specific response (y-axis) was plotted versus the log concentration of compound (x-axis) using Prism Version 9.3.1 (GraphPad Software). Individual measurements are provided as Source Data.

human IR-A (holoIR-A) = molecular target: T2, human IR-A (holoIR-A) (Homo sapiens, UniProt P06213); assay: holoIR-A competitive radioligand binding assay (scintillation proximity assay)
T2 construct: expressed in transfected cells; host or cells: HEK293 (ATCC #CRL-1573), stably transfected; membrane preparation
T2 sequence (P06213 28-1370 isoform P06213-2 limits assumed): as the sequence (P06213 28-1370 isoform P06213-2 limits assumed) above
T2 sequence (P06213 763-1382 partner limits assumed): as the sequence (P06213 763-1382 partner limits assumed) above
Procedure: Cellular membranes were prepared from human embryonic kidney (HEK293; ATCC #CRL-1573) cells stably transfected with cDNA corresponding to human IR-A (holoIR-A) plus a C-terminal C9 tag ([…]) inserted within a pcDNA3.1 plasmid (Invitrogen), with positive clones selected with 800 μg mL^−1 neomycin and confirmed by Western Blot. Frozen cell pellets were thawed in ice-cold homogenization/resuspension buffer (50 mM Tris-HCl, pH 7.5) containing one cOmplete® protease inhibitor tablet with EDTA (Roche Diagnostics) per 50 mL buffer. Cells were homogenized with an overhead motor-driven Teflon-glass homogenizer using 15–20 strokes, followed by centrifugation at 1100 × g for 10 min at 4 °C. The supernatant was saved on ice, pellets were homogenized as before, and centrifuged at 1100 × g for 10 min at 4 °C. Both supernatants were combined and subsequently centrifuged at 35,000 × g for 60 min at 4 °C. The pellet was resuspended in buffer (4 to 5 mL g^−1 of starting cell paste) containing protease inhibitors and quick frozen in liquid nitrogen prior to storage at −80 °C. Protein concentration was determined using a BCA kit (Thermo Scientific) with bovine serum albumin (BSA) as standard.
The assays were performed with a scintillation proximity assay (SPA) method using polyvinyltoluene (PVT) wheat germ agglutinin-coupled SPA beads (Perkin Elmer). Assay buffer containing 50 mM Tris-HCl (pH 7.5), 150 mM NaCl, 0.1% w/v fatty-acid free BSA was used for all compound testing and reagent preparation. Ten-point concentration response curves with three-fold serial dilutions of test samples or controls were prepared in the assay buffer. […] Plates were sealed and shaken for 1 min on a plate shaker. Following a 10-h incubation and bead settling period at room temperature, radioactivity was determined using a MicroBeta Trilux scintillation counter (Perkin Elmer) and expressed as counts per minute (CPM). […] Samples were tested in three independent assay runs on three different days.
All test sample concentration responses were normalized to the control response and calculated as a percent of the maximal response after correcting for nonspecific binding as shown below: %Specific Inhibition=100%−[(CPM−MIN)/(MAX−MIN)×100%]
Percent specific binding (y-axis) was plotted vs log concentration of compound (x-axis) using Prism Version 9.3.1 (GraphPad Software). Individual measurements are provided as Source Data.

[2] = IM172N22(-) mutant peptide set, run 1, read-out: hIRA Binding Ki Run 1
[3] = IM172N22(-) mutant peptide set, run 2, read-out: hIRA Binding Ki Run 2
[4] = IM172N22(-) mutant peptide set, run 3, read-out: hIRA Binding Ki Run 3
[5] = IM172N22(-) mutant peptide set, mean of 3 runs, read-out: hIRA Binding Ki Mean

Structure (SMILES) | hIRA Phosph IC50 Run 1 [1] [nM] | hIRA Phosph IC50 Run 2 [1] [nM] | hIRA Phosph IC50 Run 3 [1] [nM] | IC50 [1] [nM] | Ki (human IR-A (holoIR-A); [2]) [nM] | Ki (human IR-A (holoIR-A); [3]) [nM] | Ki (human IR-A (holoIR-A); [4]) [nM] | Ki (human IR-A (holoIR-A); [5]) [nM] | reduction in ki for hIR-A on substitution (human IR-A (holoIR-A); relative to control peptide IM172N22 devoid of N-terminal phenylacetylation) | Ki (human IR-A (holoIR-A); read-out: hIRA Binding Ki Mean) [nM]
CC[C@H](C)[C@H](NC(=O)[C@H](CCC(N)=O)NC(=O)[C@H](C)NC(=O)[C@H](Cc1c[nH]c2ccccc12)NC(=O)[C@H](CCC(=O)O)NC(=O)[C@H](CCC(=O)O)NC(=O)[C@H](CCC(=O)O)NC(=O)[C@H](CC(C)C)NC(=O)[C@H](CO)NC(C)=O)C(=O)N[C@@H](CCC(=O)O)C(=O)N[C@H]1CSSC[C@@H](C(=O)N2CCC[C@H]2C(=O)N2CCC[C@H]2C(=O)N[C@@H](CO)C(=O)N[C@@H](CCC(=O)O)C(=O)N[C@@H](CO)C(N)=O)NC(=O)[C@H](CCCNC(=N)N)NC(=O)CNC(=O)[C@H](Cc2ccc(O)cc2)NC(=O)[C@H](C(C)C)NC(=O)[C@H](CCC(=O)O)NC1=O [IM172N22-] (Ac-SLEEEWAQIECEVYGRCPPSES-NH2; disulfide 11-17) | 85 | 76 | 80 | 80.3 | 7.07 | 8.06 | 9.36 |  |  | 8.16
CC[C@H](C)[C@H](NC(=O)[C@H](CCC(N)=O)NC(=O)[C@H](C)NC(=O)[C@H](Cc1c[nH]c2ccccc12)NC(=O)[C@H](CCC(=O)O)NC(=O)[C@H](CCC(=O)O)NC(=O)[C@H](C)NC(=O)[C@H](CC(C)C)NC(=O)[C@H](CO)NC(C)=O)C(=O)N[C@@H](CCC(=O)O)C(=O)N[C@H]1CSSC[C@@H](C(=O)N2CCC[C@H]2C(=O)N2CCC[C@H]2C(=O)N[C@@H](CO)C(=O)N[C@@H](CCC(=O)O)C(=O)N[C@@H](CO)C(N)=O)NC(=O)[C@H](CCCNC(=N)N)NC(=O)CNC(=O)[C@H](Cc2ccc(O)cc2)NC(=O)[C@H](C(C)C)NC(=O)[C@H](CCC(=O)O)NC1=O [Peptide E3A] (Ac-SLAEEWAQIECEVYGRCPPSES-NH2; disulfide 11-17) | 1212 | 1189 | 1302 | 1230 | 335 | 353 | 337 | 342 |  | 
CC[C@H](C)[C@H](NC(=O)[C@H](CCC(N)=O)NC(=O)[C@H](C)NC(=O)[C@H](Cc1c[nH]c2ccccc12)NC(=O)[C@H](CCC(=O)O)NC(=O)[C@H](C)NC(=O)[C@H](CCC(=O)O)NC(=O)[C@H](CC(C)C)NC(=O)[C@H](CO)NC(C)=O)C(=O)N[C@@H](CCC(=O)O)C(=O)N[C@H]1CSSC[C@@H](C(=O)N2CCC[C@H]2C(=O)N2CCC[C@H]2C(=O)N[C@@H](CO)C(=O)N[C@@H](CCC(=O)O)C(=O)N[C@@H](CO)C(N)=O)NC(=O)[C@H](CCCNC(=N)N)NC(=O)CNC(=O)[C@H](Cc2ccc(O)cc2)NC(=O)[C@H](C(C)C)NC(=O)[C@H](CCC(=O)O)NC1=O [Peptide E4A] (Ac-SLEAEWAQIECEVYGRCPPSES-NH2; disulfide 11-17) | 241 | 205 | 206 | 217 | 29.0 | 20.0 | 27.5 | 25.5 | lower than 5 fold | 
CC[C@H](C)[C@H](NC(=O)[C@H](CCC(N)=O)NC(=O)[C@H](C)NC(=O)[C@H](Cc1c[nH]c2ccccc12)NC(=O)[C@H](C)NC(=O)[C@H](CCC(=O)O)NC(=O)[C@H](CCC(=O)O)NC(=O)[C@H](CC(C)C)NC(=O)[C@H](CO)NC(C)=O)C(=O)N[C@@H](CCC(=O)O)C(=O)N[C@H]1CSSC[C@@H](C(=O)N2CCC[C@H]2C(=O)N2CCC[C@H]2C(=O)N[C@@H](CO)C(=O)N[C@@H](CCC(=O)O)C(=O)N[C@@H](CO)C(N)=O)NC(=O)[C@H](CCCNC(=N)N)NC(=O)CNC(=O)[C@H](Cc2ccc(O)cc2)NC(=O)[C@H](C(C)C)NC(=O)[C@H](CCC(=O)O)NC1=O [Peptide E5A] (Ac-SLEEAWAQIECEVYGRCPPSES-NH2; disulfide 11-17) | 316 | 264 | 378 | 319 | 107 | 98 | 89.4 | 98 |  | 

Further lines, with some results ahead:

hIRA Phosph IC50 Run 1 [1] [nM] | hIRA Phosph IC50 Run 2 [1] [nM] | hIRA Phosph IC50 Run 3 [1] [nM] | IC50 [1] [nM] | Ki (human IR-A (holoIR-A); [2]) [nM] | Ki (human IR-A (holoIR-A); [3]) [nM] | Ki (human IR-A (holoIR-A); [4]) [nM] | Ki (human IR-A (holoIR-A); [5]) [nM] | reduction in ki for hIR-A on substitution (human IR-A (holoIR-A); relative to control peptide IM172N22 devoid of N-terminal phenylacetylation) | Structure (SMILES) | Ki (human IR-A (holoIR-A); read-out: hIRA Binding Ki Mean) [nM]
>10000 | >10000 | >10000 | > 10000 | > 1210 | > 4160 | > 4240 | > 4240 |  | CC[C@H](C)[C@H](NC(=O)[C@H](CCC(N)=O)NC(=O)[C@H](C)NC(=O)[C@H](Cc1c[nH]c2ccccc12)NC(=O)[C@H](CCC(=O)O)NC(=O)[C@H](CCC(=O)O)NC(=O)[C@H](CCCNC(=N)N)NC(=O)[C@H](CC(C)C)NC(=O)[C@H](CO)NC(C)=O)C(=O)N[C@@H](CCC(=O)O)C(=O)N[C@H]1CSSC[C@@H](C(=O)N2CCC[C@H]2C(=O)N2CCC[C@H]2C(=O)N[C@@H](CO)C(=O)N[C@@H](CCC(=O)O)C(=O)N[C@@H](CO)C(N)=O)NC(=O)[C@H](CCCNC(=N)N)NC(=O)CNC(=O)[C@H](Cc2ccc(O)cc2)NC(=O)[C@H](C(C)C)NC(=O)[C@H](CCC(=O)O)NC1=O [Peptide E3R] (Ac-SLREEWAQIECEVYGRCPPSES-NH2; disulfide 11-17) | 
367 | 259 | 348 | 325 | 42.4 | 35.7 | 35.9 | 38 |  | CC[C@H](C)[C@H](NC(=O)[C@H](CCC(N)=O)NC(=O)[C@H](C)NC(=O)[C@H](Cc1c[nH]c2ccccc12)NC(=O)[C@H](CCC(=O)O)NC(=O)[C@H](CCCNC(=N)N)NC(=O)[C@H](CCC(=O)O)NC(=O)[C@H](CC(C)C)NC(=O)[C@H](CO)NC(C)=O)C(=O)N[C@@H](CCC(=O)O)C(=O)N[C@H]1CSSC[C@@H](C(=O)N2CCC[C@H]2C(=O)N2CCC[C@H]2C(=O)N[C@@H](CO)C(=O)N[C@@H](CCC(=O)O)C(=O)N[C@@H](CO)C(N)=O)NC(=O)[C@H](CCCNC(=N)N)NC(=O)CNC(=O)[C@H](Cc2ccc(O)cc2)NC(=O)[C@H](C(C)C)NC(=O)[C@H](CCC(=O)O)NC1=O [Peptide E4R] (Ac-SLEREWAQIECEVYGRCPPSES-NH2; disulfide 11-17) | 
1351 | 1340 | 1323 | 1340 | 620 | 541 | 500 | 554 |  | CC[C@H](C)[C@H](NC(=O)[C@H](CCC(N)=O)NC(=O)[C@H](C)NC(=O)[C@H](Cc1c[nH]c2ccccc12)NC(=O)[C@H](CCCNC(=N)N)NC(=O)[C@H](CCC(=O)O)NC(=O)[C@H](CCC(=O)O)NC(=O)[C@H](CC(C)C)NC(=O)[C@H](CO)NC(C)=O)C(=O)N[C@@H](CCC(=O)O)C(=O)N[C@H]1CSSC[C@@H](C(=O)N2CCC[C@H]2C(=O)N2CCC[C@H]2C(=O)N[C@@H](CO)C(=O)N[C@@H](CCC(=O)O)C(=O)N[C@@H](CO)C(N)=O)NC(=O)[C@H](CCCNC(=N)N)NC(=O)CNC(=O)[C@H](Cc2ccc(O)cc2)NC(=O)[C@H](C(C)C)NC(=O)[C@H](CCC(=O)O)NC1=O [Peptide E5R] (Ac-SLEERWAQIECEVYGRCPPSES-NH2; disulfide 11-17) | 
